Here are results for six molecules from US6506550B1, “Method of including apoptosis by reducing the level of thiamin” (Brandeis University, priority 1997, dated 2003).

“Also recorded” adds a separate entry of the source. Where two headings read alike, the source gives them in different places.

In data set [1] the test system is advanced ovarian cancer. The conditions noted are these: cited from earlier work.
For data set [2], the system named is Walker's sarcoma. The conditions noted are these: rats; cited from earlier work.
The conditions of data set [3]: in vivo; cited from earlier work.
The subject of data set [4] is rat glioma C6 cells. Nature of the data set: Induction of apoptosis in rat glioma C6 cells. The conditions noted are these: for concentration active in inducing apoptosis: in vitro. In kind it is cell-based.
The conditions of data set [5]: cited from earlier work.
For data set [6] the following is noted: extremely high doses; cited from earlier work.
The conditions of data set [7]: room temperature; cited from earlier work.
In data set [8] the test system is mice. The conditions noted are these: cited from earlier work.
The conditions of data set [9]: estimated (Woolley and White, 1943); cited from earlier work.

Regarding `N.N.[Cl][Pt][Cl]` [cisplatin], the results for the survival in data set [1] (intraperitoneal injection) and in data set [1] (intravenous injection) were 49 months and 41 months, respectively.
On to `Cc1ncc(C[n+]2csc(CCO)c2C)c(=O)[nH]1` [oxythiamin], for which the “decrease in growth of Walker's sarcoma” value in data set [2] is recorded as 45%. Also, the “passage of the blood-brain barrier” value in data set [3] is on record as “do not pass”.
With `CCCc1ncc(C[n+]2ccccc2C)c(N)n1` [Amprolium], the “concentration active in inducing apoptosis” value in data set [4] was at least 0.6 mM.
Turning to `Cc1ncc(C[n+]2csc(CCO)c2C)c(N)n1` [thiamin], in data set [4] (Naegleria agent at dilution 10^−5, control medium 199), the “excess thiamin concentration that prevented induction of apoptosis by freshly added agent” value is 0.5-2 mg per liter. For the same molecule, the “half-life in the body” value in data set [5] (in vivo) is 9 to 18 days. Also, the “oral amount above which thiamin is not absorbed” value in data set [5] (oral, humans, excess excreted in urine and feces) is listed as 3-10 mg per dose. The “blood level causing respiratory paralysis” value in data set [6] is given as ≥ 70 mg of thiamin per liter of blood. Moreover, the “pH at which the methylene bridge is easily cleaved” value in data set [7] was at least 9 pH. In addition, in data set [8] (mice that could no longer stand upright), the “time to improvement after thiamin” value is recorded as “one”. In data set [8] (mouse, in vivo), the “time to no discernible symptoms after thiamin” value is at most 20 h.
For `Cc1nc(N)cc(Cl)n1` [CMP, 4-Amino-6-chloro-2-methylpyrimidine], the “induction of apoptosis by Naegleria agent pretreated with CMP” value in [4] (CMP 2.5, 5, 10 mM, 16 h 25 °C, extract diluted to 10^−5, assay day 6 (FIG. 3)) is reported as “prevented the induction of apoptosis; also recorded: did not induce apoptosis”.
For `Cc1ncc(C[n+]2cccc(CCO)c2C)c(N)n1` [pyrithiamin], the “concentration active in inducing apoptosis” value in data set [4] was at least 0.01 mM. Further, in data set [3], the “passage of the blood-brain barrier” value is “does”. Moreover, in [9], the “molecules required to nullify one molecule of thiamin” value is given as “about 40 molecules”.
